How the values were obtained:
[1] = Capsule perfume leakage in liquid fabric enhancer (LFE), headspace SPME GC/MS; format: physicochemical
Procedure: The testing of capsule leakage in liquid compositions (e.g., liquid fabric enhancer/“LFE” compositions and/or heavy-duty liquid/“HDL” detergents) is performed as follows. […] The 1 gram aliquot in the 7 ml vial is then mixed on a stirring plate for 24 h at 500 rpm, thereby ensuring that the capsules are broken by the grinding action of the stir bar against the bottom of the 7 ml vial. Optical microscopy can be used to verify that no more intact capsules remain. In case such capsules are found, the step is to repeated for an additional 24 h, or until all or almost all capsules are broken. Then, the formulation containing broken capsules is introduced into GC vials in a similar manner as for step (a). This yields total oil samples. It is to be noted that the capsule sample and the total oil sample are not analyzed on the same day, as there is a need to prepare the total oil sample after the capsule sample has been removed from storage. […] The perfume oil composition formulated herein is representative of the perfume oil composition that is present in the slurry. Then the free oil formulation is introduced into GC vials in a similar manner as for step (a). This yields reference samples, which must be used when analyzing both the capsule sample and the total oil sample. […] Two headspace vials are prepared for each sample. The sealed headspace vials are then allowed to equilibrate. Samples reach equilibrium after 3 hours at room temperature, but can be left to sit longer without detriment or change to the results, up until 24 hours after sealing the headspace vial. After equilibrating, the samples are analyzed by GC/MS. […] The perfume composition is analyzed by fast GC/MS in full scan mode. Ion extraction of the specific mass for each component is obtained. The leakage is calculated as follows, separately for the capsule sample and total oil sample, where “Area” denotes the area under the chromatogram peak corresponding to the PRM of interest: Once calculated for all PRMs for both the total oil sample and the capsule sample, the corrected PRM leakage can be calculated using the following formula: Once the corrected PRM leakage has been calculated for all PRMs, the Average leakage can be found by taking the arithmetic mean of each corrected PRM leakage. […] The resulting products are stored for one week at 35° C. At the end of the storage period, samples of each product composition are analyzed for perfume leakage out of the capsule using headspace analysis. The data is reported as a percentage, determined by comparing the amount of the individual perfume raw materials found in the headspace to the amount originally provided to the capsules.

[2] = Capsule perfume leakage in heavy-duty liquid (HDL) detergent, headspace SPME GC/MS; format: physicochemical
Procedure: The testing of capsule leakage in liquid compositions (e.g., liquid fabric enhancer/“LFE” compositions and/or heavy-duty liquid/“HDL” detergents) is performed as follows. […] The 1 gram aliquot in the 7 ml vial is then mixed on a stirring plate for 24 h at 500 rpm, thereby ensuring that the capsules are broken by the grinding action of the stir bar against the bottom of the 7 ml vial. Optical microscopy can be used to verify that no more intact capsules remain. In case such capsules are found, the step is to repeated for an additional 24 h, or until all or almost all capsules are broken. Then, the formulation containing broken capsules is introduced into GC vials in a similar manner as for step (a). This yields total oil samples. It is to be noted that the capsule sample and the total oil sample are not analyzed on the same day, as there is a need to prepare the total oil sample after the capsule sample has been removed from storage. […] The perfume oil composition formulated herein is representative of the perfume oil composition that is present in the slurry. Then the free oil formulation is introduced into GC vials in a similar manner as for step (a). This yields reference samples, which must be used when analyzing both the capsule sample and the total oil sample. […] Two headspace vials are prepared for each sample. The sealed headspace vials are then allowed to equilibrate. […] After equilibrating, the samples are analyzed by GC/MS. […] The perfume composition is analyzed by fast GC/MS in full scan mode. Ion extraction of the specific mass for each component is obtained. The leakage is calculated as follows, separately for the capsule sample and total oil sample, where “Area” denotes the area under the chromatogram peak corresponding to the PRM of interest: Once calculated for all PRMs for both the total oil sample and the capsule sample, the corrected PRM leakage can be calculated using the following formula: Once the corrected PRM leakage has been calculated for all PRMs, the Average leakage can be found by taking the arithmetic mean of each corrected PRM leakage. […] The resulting products are stored for one week at 35° C. At the end of the storage period, samples of each product composition are analyzed for perfume leakage out of the capsule using headspace analysis. The data is reported as a percentage, determined by comparing the amount of the individual perfume raw materials found in the headspace to the amount originally provided to the capsules.

[3] = PRM of Perfume 1 out of Comparative Example 4-1 capsules (polyacrylate shell), LFE Composition 1, 0.25 wt % perfume
[4] = PRM of Perfume 1 out of Comparative Example 6-1 capsules (no second shell component), LFE Composition 1
[5] = PRM of Perfume 1 out of Comparative Example 10-1 capsules (per EP2500087B1), LFE Composition 1
[6] = PRM of Perfume 1 out of Comparative Example 10-2 capsules (per WO2010013250A2, with IPM), LFE Composition 1
[7] = PRM of Perfume 1 out of Example 2, Sample A capsules, LFE Composition 1 (Ester Quat 1)
[8] = PRM of Perfume 1 out of Example 2, Sample A capsules, LFE Composition 2 (Ester Quat 2)
[9] = PRM of Perfume 1 out of Example 2, Sample A capsules, LFE Composition 3 (Ester Quat 3)
[10] = PRM of Perfume 1 out of Example 4-1 capsules (silica shell), LFE Composition 1, 0.25 wt % perfume
[11] = PRM of Perfume 1 out of Example 6-1 capsules (w/ second shell component), LFE Composition 1
[12] = PRM of Perfume 1 out of Example 10-1 capsules (Sample F, Perfume 1/IPM 40/60), LFE Composition 1
[13] = PRM of Perfume 1 out of Example 10-2 capsules (Sample A), LFE Composition 1
[14] = PRM of Perfume 2 out of Capsule Sample C, LFE Composition 1
[15] = PRM of Perfume 3 out of Capsule Sample D, LFE Composition 1
[16] = PRM of Perfume 1 out of Comparative Example 5-1 capsules (polyacrylate shell)
[17] = PRM of Perfume 1 out of Comparative example 5-2 capsules (per EP2500087B1)
[18] = PRM of Perfume 1 out of Comparative example 5-3 capsules (per WO2010013250A2)
[19] = PRM of Perfume 1 out of Example 5-1 capsules (silica shell)
[20] = PRM of Perfume 4 out of Comparative Example 9-1 capsules (per EP3078415A), LFE Composition 1
[21] = PRM of Perfume 4 out of Comparative Example 9-2 capsules (per EP3078415A, additional TEOS), LFE Composition 1
[22] = PRM of Perfume 4 out of Example 9-1 capsules (Sample E), LFE Composition 1

SMILES	Leakage (as %) after 1 week at 35° C. [1, 3] [%]	Leakage (as %) after 1 week at 35° C. [1, 4] [%]	Leakage (as %) after 1 week at 35° C. [1, 5] [%]	Leakage (as %) after 1 week at 35° C. [1, 6] [%]	Leakage (as %) after 1 week at 35° C. [1, 7] [%]	Leakage (as %) after 1 week at 35° C. [1, 8] [%]	Leakage (as %) after 1 week at 35° C. [1, 9] [%]	Leakage (as %) after 1 week at 35° C. [1, 10] [%]	Leakage (as %) after 1 week at 35° C. [1, 11] [%]	Leakage (as %) after 1 week at 35° C. [1, 12] [%]	Leakage (as %) after 1 week at 35° C. [1, 13] [%]	Leakage (as %) after 1 week at 35° C. [1, 14] [%]	Leakage (as %) after 1 week at 35° C. [1, 15] [%]	Leakage (as %) after 1 week at 35° C. [2, 16] [%]	Leakage (as %) after 1 week at 35° C. [2, 17] [%]	Leakage (as %) after 1 week at 35° C. [2, 18] [%]	Leakage (as %) after 1 week at 35° C. [2, 19] [%]	Leakage (as %) after 1 week at 35° C. [1, 20] [%]	Leakage (as %) after 1 week at 35° C. [1, 21] [%]	Leakage (as %) after 1 week at 35° C. [1, 22] [%]
CCOC(=O)C(C)CC (stereo not drawn) [Ethyl 2-methyl butyrate]	61	101	100	100	1.3	1.0	2.2	4	6	28	6	21	14	75	103	99	38	–	–	–
CC12CCC(CC1)C(C)(C)O2 [Eucalyptol]	5	72	97	96	2.1	1.3	2.0	7	8	26	8	–	–	1	104	101	28	–	–	–

Now from value to compound:

Leakage (as %) after 1 week at 35° C. [1, 3] [%]	Leakage (as %) after 1 week at 35° C. [1, 4] [%]	Leakage (as %) after 1 week at 35° C. [1, 5] [%]	Leakage (as %) after 1 week at 35° C. [1, 6] [%]	Leakage (as %) after 1 week at 35° C. [1, 7] [%]	Leakage (as %) after 1 week at 35° C. [1, 8] [%]	Leakage (as %) after 1 week at 35° C. [1, 9] [%]	Leakage (as %) after 1 week at 35° C. [1, 10] [%]	Leakage (as %) after 1 week at 35° C. [1, 11] [%]	Leakage (as %) after 1 week at 35° C. [1, 12] [%]	Leakage (as %) after 1 week at 35° C. [1, 13] [%]	Leakage (as %) after 1 week at 35° C. [1, 14] [%]	Leakage (as %) after 1 week at 35° C. [1, 15] [%]	Leakage (as %) after 1 week at 35° C. [2, 16] [%]	Leakage (as %) after 1 week at 35° C. [2, 17] [%]	Leakage (as %) after 1 week at 35° C. [2, 18] [%]	Leakage (as %) after 1 week at 35° C. [2, 19] [%]	Leakage (as %) after 1 week at 35° C. [1, 20] [%]	Leakage (as %) after 1 week at 35° C. [1, 21] [%]	Leakage (as %) after 1 week at 35° C. [1, 22] [%]	SMILES
9	83	90	95	2.3	1.1	1.2	8	8	18	8	9	9	2	105	102	27	70	76	17	CCC(C)(O)CCCC(C)C (stereo not drawn) [Tetrahydro linalool]
10	86	88	95	2.4	1.2	1.2	8	7	17	7	–	–	3	107	105	26	–	–	–	CCC(C)CCCC(C)(C)O (stereo not drawn) [Tetrahydro myrcenol]
4	20	89	94	1.2	0.8	1.2	5	7	17	7	6	8	1	107	104	26	67	72	13	CC(=O)OC1CC2CC1C1CC=CC21 (stereo not drawn) [Verdyl acetate]
